Our source for the Ki and EC50 values is US10968236B2, “TYK2 inhibitors and uses thereof” (Nimbus Lakshmi, Inc., priority 2015, dated 2021).

Molecules are shown by their SMILES.

Broadly, the Ki is a dissociation constant, usually derived from enzyme kinetics or from competition with a known ligand. As usually defined, the EC50 is the concentration at which the effect is half-maximal.

For one assay, the target named is TYK2 (Homo sapiens (Human), UniProt P29597). Briefly: Tyk2 activity inhibition assay (radioactive kinase / Caliper assay). The assay is classed as biochemical.
Sequence of TYK2 (P29597 whole entry): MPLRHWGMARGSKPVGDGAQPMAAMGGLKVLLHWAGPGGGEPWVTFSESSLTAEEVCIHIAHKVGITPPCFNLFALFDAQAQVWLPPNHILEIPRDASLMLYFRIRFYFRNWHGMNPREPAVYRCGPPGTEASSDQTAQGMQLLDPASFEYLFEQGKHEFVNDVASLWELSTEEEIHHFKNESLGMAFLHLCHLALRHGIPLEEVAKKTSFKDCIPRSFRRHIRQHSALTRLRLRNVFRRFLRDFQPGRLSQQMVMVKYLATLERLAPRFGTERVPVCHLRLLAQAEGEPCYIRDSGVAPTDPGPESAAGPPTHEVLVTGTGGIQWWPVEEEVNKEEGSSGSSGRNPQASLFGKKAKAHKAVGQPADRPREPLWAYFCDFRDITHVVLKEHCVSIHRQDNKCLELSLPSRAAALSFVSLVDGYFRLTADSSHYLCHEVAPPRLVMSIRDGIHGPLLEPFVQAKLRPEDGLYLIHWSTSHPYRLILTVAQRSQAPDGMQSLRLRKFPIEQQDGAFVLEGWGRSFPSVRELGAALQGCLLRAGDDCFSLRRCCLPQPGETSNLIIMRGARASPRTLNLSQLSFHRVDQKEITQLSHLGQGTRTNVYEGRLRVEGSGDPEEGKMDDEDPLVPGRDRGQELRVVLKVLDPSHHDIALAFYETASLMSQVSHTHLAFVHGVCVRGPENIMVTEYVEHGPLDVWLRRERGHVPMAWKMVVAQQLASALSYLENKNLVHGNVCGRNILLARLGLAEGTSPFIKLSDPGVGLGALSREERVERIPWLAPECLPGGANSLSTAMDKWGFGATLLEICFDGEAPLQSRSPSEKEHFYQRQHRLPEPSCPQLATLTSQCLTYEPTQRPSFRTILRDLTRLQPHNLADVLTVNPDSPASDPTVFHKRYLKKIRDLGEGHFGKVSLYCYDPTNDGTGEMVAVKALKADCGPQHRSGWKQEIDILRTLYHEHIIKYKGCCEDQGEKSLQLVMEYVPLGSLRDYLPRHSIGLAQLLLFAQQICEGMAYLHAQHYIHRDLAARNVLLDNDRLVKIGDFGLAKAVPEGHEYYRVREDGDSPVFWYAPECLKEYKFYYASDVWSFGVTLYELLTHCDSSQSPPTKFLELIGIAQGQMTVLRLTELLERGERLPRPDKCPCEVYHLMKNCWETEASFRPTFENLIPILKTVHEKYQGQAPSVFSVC
In assay [1] the test system is IL-12 induced pSTAT4 (Tyk2-pSTAT4). In words: IL-12 Induced pSTAT4 in human PBMC. The assay is classed as cell-based. To be noted: IL-12 1.7 ng/mL. The method, then: IL-12 Induced pSTAT4 in human PBMC. Human PBMC are isolated from buffy coat and are stored frozen for assays as needed. Cells for assay are thawed and resuspended in complete media containing serum, then cells are diluted to 1.67 E6 cells/ml so that 120 μl per well is 200,000 cells. 15 μl of compound or DMSO is added to the well at the desired concentrations and incubated at 1 hr at 37 C. 15 μl of stimulus (final concentration of 1.7 ng/mL IL-12) is added for 30 minutes prior to pSTAT4 and total STAT4 analysis using cell lysates prepared and analyzed by MSD reagents as per manufacturer protocol. The final DMSO concentration of compound in the assay is 0.1%.
(§1) The compound numbers correspond to the compound numbers in Table 1. Compounds having an activity designated as “A” provided an EC50≤2 μM; compounds having an activity designated as “B” provided a EC50 of 2-20 μM, and compounds having an activity designated as “C” provided an EC50>20 μM.

Assay [2] concerns GM-CSF induced pSTAT5 (JAK2-pSTAT5). Briefly: GM-CSF Induced pSTAT5 in human PBMC. To be noted: GM-CSF 5 ng/mL. It is filed as cell-based. The method, then:
GM-CSF Induced pSTAT5 in human PBMC. Cells are prepared for analysis as in the above procedure and 15 μl of GM-CSF (final concentration 5 ng/mL) is added for 20 minutes prior to pSTAT5 and total STAT5 analysis using cell lysates prepared and analyzed by MSD reagents as per manufacturer protocol. The final DMSO concentration of compound in the assay is 0.1%.
as §1

For another assay, the target named is JAK2 (Homo sapiens (Human), UniProt O60674). Briefly: JAK2 activity inhibition assay (radioactive kinase / Caliper assay). The assay is classed as biochemical.
Sequence of JAK2 (O60674 whole entry): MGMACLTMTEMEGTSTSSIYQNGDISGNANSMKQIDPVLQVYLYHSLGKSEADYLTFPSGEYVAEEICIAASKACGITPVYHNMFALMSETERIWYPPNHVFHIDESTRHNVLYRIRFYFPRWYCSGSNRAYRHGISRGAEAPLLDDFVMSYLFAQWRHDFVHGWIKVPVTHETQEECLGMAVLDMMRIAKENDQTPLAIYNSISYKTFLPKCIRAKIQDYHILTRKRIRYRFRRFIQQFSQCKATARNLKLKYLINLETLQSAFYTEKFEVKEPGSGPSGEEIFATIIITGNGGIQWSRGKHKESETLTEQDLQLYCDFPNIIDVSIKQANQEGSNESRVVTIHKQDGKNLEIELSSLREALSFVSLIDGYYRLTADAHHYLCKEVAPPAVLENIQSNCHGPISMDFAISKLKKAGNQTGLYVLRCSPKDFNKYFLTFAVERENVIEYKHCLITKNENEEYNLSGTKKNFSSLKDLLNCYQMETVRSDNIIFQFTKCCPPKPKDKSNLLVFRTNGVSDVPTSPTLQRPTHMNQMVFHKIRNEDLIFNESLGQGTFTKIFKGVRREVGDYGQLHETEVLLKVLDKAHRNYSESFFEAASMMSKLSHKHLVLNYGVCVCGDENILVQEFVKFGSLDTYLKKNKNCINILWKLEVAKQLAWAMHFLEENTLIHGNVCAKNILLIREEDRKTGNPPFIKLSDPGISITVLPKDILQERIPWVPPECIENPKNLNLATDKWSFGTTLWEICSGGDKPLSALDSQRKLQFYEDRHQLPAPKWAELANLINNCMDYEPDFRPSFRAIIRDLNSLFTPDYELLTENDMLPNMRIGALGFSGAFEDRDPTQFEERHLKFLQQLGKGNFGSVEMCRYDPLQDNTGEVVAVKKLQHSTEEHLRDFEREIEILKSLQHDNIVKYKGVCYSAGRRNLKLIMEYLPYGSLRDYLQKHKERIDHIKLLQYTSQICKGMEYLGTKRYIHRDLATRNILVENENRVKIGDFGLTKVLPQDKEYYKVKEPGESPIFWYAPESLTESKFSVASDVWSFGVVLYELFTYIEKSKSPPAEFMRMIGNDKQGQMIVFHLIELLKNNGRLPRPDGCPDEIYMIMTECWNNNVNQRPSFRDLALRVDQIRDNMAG

For the compound `CCNC(=O)[C@@](C)(O)c1ccc(Nc2nc(-c3c(F)cccc3F)nc3c2C(=O)NC3)cc1` [Compound I-15, (S)-2-(4-((2-(2,6-difluorophenyl)-5-oxo-6,7-dihydro-5H-pyrrolo[3,4-d]pyrimidin-4-yl)amino)phenyl)-N-ethyl-2-hydroxypropanamide], the results for the Ki on TYK2 and on JAK2 were at most 10 nM and 10 to 100 nM, respectively. Moreover, the concentration for a half-maximal effect (EC50) in assay [1] was at most 2000 nM; in assay [2], 2000 to 20000 nM.
Take `O=C1CCOc2cc(Nc3cc(-c4c(F)cccc4F)nc4c3C(=O)NC4)ccc21` [Compound I-72, 2-(2,6-difluorophenyl)-4-((4-oxochroman-7-yl)amino)-6,7-dihy-dro-5H-pyrrolo[3,4-b]pyridin-5-one]: the Ki at TYK2 is 10 to 100 nM; on JAK2, at least 1000 nM. The EC50 in assay [1] and in assay [2] was above 20000 nM throughout.
Regarding `O=C1NCc2nc(-c3c(F)cccc3F)cc(Nc3ccc(N4CCC5(CCOC5)CC4)cn3)c21` [Compound I-52, 4-((5-(2-oxa-8-azaspiro[4.5]decan-8-yl)pyridin-2-yl)amino)-2-(2,6-difluorophenyl)-6,7-dihydro-5H-pyrrolo[3,4-b]pyridin-5-one], the inhibition constant (Ki) at TYK2 and at JAK2 was at most 10 nM each time. For the same compound, the EC50 in assay [1] and in assay [2] was at most 2000 nM throughout.
